Assay results reported in patent EP0355353A2, “Cycloalkylthiazole derivatives” (F. HOFFMANN-LA ROCHE AG, priority 1988, dated 1990).

Assays:
[1] = target: T1, Leukotriene D₄ Receptor (Cavia porcellus, UniProt Q2NNR5); assay: Leukotriene D₄ Receptor Binding Assay (Guinea Pig Lung Homogenate), displacement of ³H-LTD₄; conditions: guinea pig lung membrane homogenate, 3.5 nM ³H-LTD₄, 20°C, 30 minutes; read-out: LTD₄ Binding IC₅₀
T1 construct: from tissue; host or cells: guinea pig lung crude membrane fraction
T1 sequence (Q2NNR5 1-340): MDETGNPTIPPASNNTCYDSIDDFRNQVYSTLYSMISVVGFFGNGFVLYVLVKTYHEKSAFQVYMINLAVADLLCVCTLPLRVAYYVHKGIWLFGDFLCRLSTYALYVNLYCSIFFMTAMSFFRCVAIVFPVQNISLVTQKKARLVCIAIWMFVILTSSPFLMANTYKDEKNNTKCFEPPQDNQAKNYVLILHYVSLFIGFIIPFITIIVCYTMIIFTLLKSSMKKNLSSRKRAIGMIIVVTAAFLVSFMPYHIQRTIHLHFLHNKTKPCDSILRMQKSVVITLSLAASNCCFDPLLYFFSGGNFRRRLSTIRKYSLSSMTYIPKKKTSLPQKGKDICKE
Protocol: Leukotriene D₄ Receptor Binding Assay (Guinea Pig Lung Homogenate) […]
a) Preparation of membrane homogenate
Male albino guinea pigs (Hartley strain, 400-500 g body weight) were sacrificed by decapitation. The lungs were removed, frozen in liquid nitrogen and stored at -70° until use. The frozen tissue (5 g) was thawed, minced into small pieces and rinsed in phosphate-buffered saline. The tissue was placed in 40 ml homogenization buffer containing 0.25 M sucrose, 10 mM Tris-HCl, (pH 7.5), and the following protease inhibitors: soybean trypsin inhibitor (5 µg/ml) bacitracin (100 µg/ml), benzamidine (10⁻³M) and phenylmethylsulfonyl fluoride ([…]). The protease inhibitors were included to inhibit proteolysis during the processes of homogenization and centrifugation. The tissue was then homogenized at 0-4°C with a Brinkman PT-20 polytron for a total of 1 minute (10 second pulses at a setting of 6). The homogenate was centrifuged (1000 x g for 10 minutes) to remove tissue clumps, unbroken cells and nuclei. The supernatant was recentrifuged at 30,000 x g for 30 minutes to yield pellets which were referred to as crude membrane fractions. This fraction was then resuspended in the incubation buffer (10 mM Pipes buffer, pH 7.5, 50 mM NaCl), homogenized in a Teflon homogenizer and recentrifuged at 30,000 x g for 30 minutes. The pellets were finally resuspended in the incubation buffer with a Teflon homogenizer at a concentration of 10 to 20 mg/ml of protein in the suspension. The concentrations of proteins were determined using the Biorad reaction kit. […]
b) Receptor-Ligand Binding Assay
Optimum assay conditions were determined with an assay mixture containing: Tyrode solution; 0.1% bovine serum albumin (BSA); 1 mM glycine; 1 mM cysteine; 3.5 nM ³H-LTD₄ and the membrane preparation (100-200 µg protein) in a final volume of 250 µl. The incubation was carried out at 20°C for 30 minutes. At 20°C, binding increased linearly with protein concentration, reached equilibrium in 20 minutes, was saturable, and reversible upon additions of unlabelled LTD₄. Separation of bound from free ³H-LTD₄ was performed by rapid filtration on GF/C glass fiber filters and washing with two 4 ml aliquots of Tyrode solutions containing 0.1% BSA. Radioactivity remaining on the filters was measured in 10 ml of Aquasol. Specific binding was defined as that displaced by 10⁻⁶M unlabelled LTD₄ and was 95% of total binding.

[2] = system: LTD₄-Induced Bronchoconstriction; assay: Leukotriene-Induced Bronchoconstriction in Guinea Pigs - in vivo leukotriene D₄ (LTD) antagonist test, intravenous and oral testing; design: LTD₄-Induced Bronchoconstriction (ID₅₀) i.v. / LTD₄-Induced Bronchoconstriction (ID₅₀) p.o.: unit not given here; conditions: for Duration 10 mg/kg p.o. 4 hr.: inhibition with LTD challenge 4 hr. after administration; for Duration 10 mg/kg p.o. 8 hr.: inhibition with LTD challenge 8 hr. after administration; for Duration 10 mg/kg p.o. 18 hr.: inhibition with LTD challenge 18 hr. after administration; for inhibition at 10 mg/kg / inhibition at 1 mg/kg: Cavia porcellus; for inhibition at 10 mg/kg: 2 h, two hours prior to LTD challenge (25 µg/kg i.v.); for Duration 10 mg/kg p.o. 4 hr. / Duration 10 mg/kg p.o. 8 hr. / Duration 10 mg/kg p.o. 18 hr. / inhibition at 10 mg/kg: 10 mg/kg p.o.; for inhibition at 1 mg/kg: iv, 1 mg/kg i.v., 1 minute before LTD challenge (25 µg/kg i.v.), change in tracheal pressure; for LTD₄-Induced Bronchoconstriction (ID₅₀) i.v.: intravenous route; for LTD₄-Induced Bronchoconstriction (ID₅₀) i.v. / LTD₄-Induced Bronchoconstriction (ID₅₀) p.o.: increasing doses, value in parentheses; for LTD₄-Induced Bronchoconstriction (ID₅₀) p.o.: oral route, two hours prior to challenge
Protocol: Leukotriene-Induced Bronchoconstriction in Guinea Pigs - In vivo leukotriene D₄ (LTD) antagonist test
Intravenous and Oral Testing
Male guinea pigs (Hartley strain Charles River) weighing 300-500 g were anesthetized with urethane (∼2 g/kg) intraperitoneally and a polyethylene cannula was inserted into the jugular vein for intravenous drug administration. Tracheal pressure (cm of H₂0) was recorded from a Statham pressure transducer (P 32 AA). Propranolol was administered 5 minutes prior to challenge with LTD. Two minutes later spontaneous breathing was arrested with succinylcholine chloride (1.2 mg/kg) administered intravenously and the animals were ventilated with a Harvard (Model #680) small animal respirator set a 40 breaths/min and 4.0 cc stroke volume. Control vehicle or test drug was administered through the cannula into the jugular vein 1 minute before the animals were challenged intravenously with a maximum constrictory dose of LTD (25 µg/kg) given intravenously. The change in tracheal pressure was averaged for control and drug-treated animals and percent inhibition was calculated. For determination of oral activity, animals were dosed with test compound or vehicle two hours prior to challenge with LTD (25 µg/kg. i.v.).
The relative potency (ID₅₀ values) of test compounds administered by the intravenous and oral route was determined by administering increasing doses of test compound. For determination of the time course of inhibition for various compounds, the time between administration of compound and challenge with LTD was varied. The time course of activity was calculated as the time when inhibition decreased to 40%.

Compound	IC50 [1] [nM]	Duration 10 mg/kg p.o. 4 hr. [2]	Duration 10 mg/kg p.o. 8 hr. [2]	Duration 10 mg/kg p.o. 18 hr. [2]	inhibition at 10 mg/kg [2] [%]	inhibition at 1 mg/kg [2] [%]	LTD₄-Induced Bronchoconstriction (ID₅₀) i.v. [2]	LTD₄-Induced Bronchoconstriction (ID₅₀) p.o. [2]
CCC(CC)(CC(=O)Nc1cccc(/C=C/c2nc(C3CC3)cs2)c1)C(=O)O [(E)-4-[[3-[2-(4-cyclopropyl-2-thiazolyl)ethenyl]phenyl]amino]-2,2-diethyl-4-oxobutanoic acid]	20	99±1	95±1	61±6	98 ± 1	94 ± 2	0.18	1.1
CC(CC(=O)Nc1cccc(/C=C/c2nc(C3CCC3)cs2)c1)C(=O)O (centres unmarked) [(E)-4-[[3-(2-(4-cyclobutyl-2-thiazolyl)ethenyl]phenyl]amino]-2-methyl-4-oxobutanoic acid]	110	–	–	–	–	–	(0.61)	–
CCC(CC)(CC(=O)Nc1cccc(/C=C/c2nc(C3CCCCC3)cs2)c1)C(=O)O [(E)-4-[[3-[2-(4-cyclohexyl-2-thiazolyl)ethenyl]phenyl]amino]-2,2-diethyl-4-oxobutanoic acid]	80	69±12	81±9	38+4	87 ± 6	96 ± 2	0.31	0.66
O=C(O)CCC(=O)Nc1cccc(/C=C/c2nc(C3CC3)cs2)c1 [(E)-4-[[3-[2-(4-cyclopropyl-2-thiazolyl)ethenyl]phenyl]amino]-4-oxobutanoic acid]	4000	–	–	–	–	15 ± 4	–	–
CCC(CC)(CC(=O)Nc1cccc(/C=C/c2nc(C3CCCC3)cs2)c1)C(=O)O [(E)-4-[[3-[2-(4-cyclopentyl-2-thiazolyl)ethenyl]phenyl]amino]-2,2-diethyl-4-oxobutanoic acid]	60	99+1	98+1	70±7	97 ± 1	99 ± 1	0.08	0.34
CCC(CC)(CC(=O)Nc1cccc(/C=C/c2nc(C3CCC3)cs2)c1)C(=O)O [(E)-4-[[3-[2-(4-cyclobutyl-2-thiazolyl)ethenyl]phenyl]amino]-2,2-diethyl-4-oxobutanoic acid]	15	100±0	98±1	–	99 ± 1	98	0.13	0.12
